This series can be described thus: Relaxibity (r1, r2) measurement by MRI at 1.5 T and 9.4 T. It counts as physicochemical. The source says: In accordance with the present disclosure, the relaxibity (unit mM^−1 s^−1) is obtained using an inversion recovery according to the inversion time (T1). More specifically, signal intensities at varying inversion times T1 are acquired. Then, the signal intensities are subjected to a minimum non-linear fitting (NLF) to obtain the relaxation time (s). Then, the relaxibity (unit mM^−1 s^−1) is obtained using the relaxation time (s) and the concentration (mM) of the contrast agent. The gadolinium complex represented by the Chemical Formula 1 has the relaxibity defined as above which is at least 4 mM^−1 s^−1 not only in the normal magnetic field range of 1.5 T but also in the high magnetic field of 7 T or greater.
The relaxibity for the gadolinium complex GdL^b as obtained above was measured at magnetic field strengths of 1.5 T and 9.4 T respectively as follows.
T1 relaxation time was checked using inversion recovery according to various T1 (inversion times). […] The T2 relaxation time is determined as follows. […] For TEs, mean values of pixels for various spin-echo measurements were calculated using a nonlinear fitting method. Then, the T2 relaxation time was calculated using the spin-echo measurements. The relaxibity (mM^−1s^−1) was calculated as an inverse of a relaxation time (s) for the contrast agent 1 mM. We calculated r1 using the T1 relaxation time and r2 using the T2 relaxation time. […]

Regarding `O=C([O-])CN1CCN(CC(=O)[O-])CCN([C@H](CO)[C@H](O)CO)CCN(CC(=O)[O-])CC1.[Gd+3]` (racemic) [Gadovist ®, gadobutrol], the “Relaxibity r1” value (magnetic field 1.5 T) was found to be 4.06 mM⁻¹ s⁻¹ and the “Relaxibity r1” value (magnetic field 9.4 T) came out at 2.96 mM⁻¹ s⁻¹.

The values above are taken from patent US10759817B2, “Gadolinium complex, method for synthesis of the gadolinium complex, and MRI contrast agent including the gadolinium complex” (Kyungpook National University Industry-Academic Cooperation …, priority 2018, dated 2020).
